This note sets out measurements from patent US4925861A, “Carboxystyrene derivatives and drugs containing them as effective ingredients” (Mitsubishi Kasei Corporation, priority 1987, dated 1990).

SMILES strings stand for the structures.

The test system of this experiment is Phospholipase A2 from Naja mocambique. As to the kind of experiment: in vitro phospholipase inhibiting activity (DPybPC fluorescence). The settings on record: compound 10^-5 M, substrate DPybPC 2 μM, pH 8.0, 25° C. The class given is biochemical.

Turning to `CCC(CC)(CNC(=O)c1cccc(C=Cc2nc3ccccc3s2)c1)C(=O)O` [Compound 20], the “Phospholipase A2 Inhibition (%)” value is reported as 47%.
For the compound `O=C(Nc1ccccc1C(=O)O)c1cccc(C=Cc2nc3ccccc3s2)c1` [Compound 13], the “Phospholipase A2 Inhibition (%)” value is listed as 73%.
